Experimental data published in US12168673B2 (Mitopower, Inc., priority 2022, dated 2024).
Like-named read-outs stand apart in the source and are kept apart here.

Key:
[1] = Distribution in kidney and liver tissue after 24 hrs in rats; conditions: compared with nicotinic acid
[2] = PK study in rats (plasma); format: in vivo; conditions: rats; for half-life: plasma
[3] = Long term solid stability at −15° C. (purity by UPLC); format: physicochemical; conditions: for Purity % by UP LC: solid state, −15° C. (freezer)
Protocol: The compound from this vial was assessed for purity by UPLC at two different timepoints: Day 0 and Day 93 (3 months).

[4] = test system: cisplatin induced acute kidney injury (AKI) mouse model; test: Cisplatin induced kidney injury model in mice; format: in vivo, BALB/c female mice
Protocol: The study was performed using protocols approved by the Institutional Animal Ethics Committee (IAEC) based on CPCSEA guidelines for animal care and use. BALB/c female mice of 6-8 weeks age were divided into 5 groups with each group containing 6 members. Animal room environment were monitored for temperature and relative humidity twice a day. The temperature range was 22° C.±3° C. and the humidity range was 30-70%, although the upper range for humidity may be exceeded during room cleaning. Animals were housed in IVC systems and provided with cycles of 12 hours of light and 12 hours of darkness through the study. SDS Feed (M/s. SDS diets services) and autoclaved drinking water was provided ad libitum.
The vehicle for cisplatin was 0.9% saline while the vehicle for compound 100 was PBS at pH 6. The compound 100 formulations were prepared just prior to doing each time. The study was performed in 5 groups.
Animals were acclimatized prior to the study. Pretreatment with compound 100 was administered for 3 days before cisplatin dosing. Animals were weighed and administered vehicle in group 1 and cisplatin was administered at a single dose of 25 mg/kg to groups 2, 3, 4 and 5 intraperitonially on day-3 of the study. The oral dose groups (groups 3-5) were dosed with compound 100 twice daily for 6 days (3 days pre-dose and 3 days post-dose cisplatin).
Blood samples were collected at end of the study (12 h, post last dose terminal sampling, cardiac puncture) in 2 ml Eppendorf tubes, and serum was separated and stored at −20° C. for clinical chemistry analysis.
All animals survived and were sacrificed at end of the study (12 hours post last test compound dose) with an overdose of CO2. […] Serum creatinine and blood urea nitrogen (BUN) was determined using a clinical chemistry analyzer on the final day of blood collection and the results are graphically illustrated for groups 1-5 in FIG. 13 and FIG. 14, respectively.

[5] = Human plasma protein binding (RED dialysis); conditions: human, plasma, human plasma, 10 μM, 5 hours dialysis
Protocol: The test compounds were weighed and prepared as 10 mM stocks in 100% DMSO. 10 μM is the final test concentration for all compounds.
The samples were prepared by spiking test compound(s) in plasma at 10 μM final concentration. 200 μL of plasma containing the test compound was added into the donor well (RED Chamber) of the insert. Simultaneously 350 μL of dialysis buffer (1×PBS) was added into the receiver well (white chamber). Two measurements were made for each test compound. The plate was covered with a sealer and incubated at 37° C. degrees on an orbital shaker at 500 rpm for 5 hours.
After incubation, 25 μl of plasma (RED chamber) and 25 μl of buffer (white chamber) samples were separately collected into separate centrifugation tubes. Plasma and buffer samples were precipitated with 200 μL of 100% acetonitrile containing internal standards. 25 μl of T0 (T Zero) plasma samples (samples before 5 hours incubation) were collected (To samples were processed immediately after the preparation of plasma working stock solution. These samples serve as a measure for calculating the percentage recovery of the test compound and precipitated using 100% acetonitrile containing internal standards). The samples were vortexed at 1000 rpm for 5 min and centrifuged at 4000 rpm for 10 min. The supernatant was diluted 2-fold with water and injected into LC-MS/MS.
The % of Plasma bound/unbound fraction was calculated by the following equation: % Unbound or % free=100*(Fc/Tc); % Recovery=100 (Fc+Tc)/[…] where Tc=Total compound concentration as determined by the calculated concentration on the plasma side of the membrane (concentration in plasma chamber), Fc=Free compound concentration as determined by the calculated concentration on the buffer side of the membrane (concentration in buffer chamber) and T0=Total compound concentration as determined before dialysis.

human hepatocytes = test: Human hepatocyte clearance; format: in vitro ADME
Outline: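 Cryopreserved human hepatocytes at a 2 million cell working stock mixed 1:1 with 2 μM compound working stock at 37 °C, in duplicate. Samples quenched in acetonitrile with internal standard at 0, 15, 30, 60 and 90 min, then analysed by LC-MS/MS.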

[6] = rat, Group 2: compound 100 83 mg/kg IV, analyte compound 100 in plasma
[7] = mice, 50, 250 and 500 mg/kg PO twice daily for 6 days, cisplatin 25 mg/kg IP, p<0.05

With `O=C(OC1O[C@H](CO)[C@@H](O)[C@H]1O)c1cccnc1` (stereo partly drawn) [Compound 100, (3R, 4S, 5R)-3,4-dihydroxy-5-(hydroxymethyl) tetrahydrofuran-2-yl nicotinate] as the compound, how does the “delivery of nicotinic acid into the tissues” value [1] read?
The value was “more efficiently than nicotinic acid”.

What about the half-life ([2]; rat, iv, 83 mg/kg, Group 2: compound 100 83 mg/kg IV, analyte compound 100 in plasma, read-out: T1/2 (converted)) of the same compound?
The half-life was 1.01 ± 0.22 h.

And the half-life ([2]; rat, iv, 83 mg/kg, delivered by IV, read-out: T1/2 of degradation in rat plasma (converted))?
The half-life was 1 h.

What about the half-life ([2]; rat, po, 415 mg/kg, oral, said to be consistent with hepatocyte stability in vitro, read-out: T1/2 following oral administration) of the same compound?
Its half-life is 5 to 6 h.

And the Cmax [2, 6]?
The Cmax was 188 ± 97.2 µM.

And the Tmax [2, 6]?
Its Tmax is 8.34 ± 5.76 min.

And the clearance [2, 6]?
Its clearance is 37.7 mL/min/kg.

What about the AUC(0-t) ([2]; rat, Group 2: compound 100 83 mg/kg IV, analyte compound 100 in plasma, read-out: AUC0-1) of the same compound?
The AUC(0-t) was 148 ± 34 µM·h.

What about the Vd ([2]; rat, Group 2: compound 100 83 mg/kg IV, analyte compound 100 in plasma, read-out: Vss) of the same compound?
The Vd was 3.4 ± 1.62 L/kg.

And the “in vivo pharmacology compared with nicotinic acid (conclusion)” value [2]?
The value was “superior in vivo pharmacology than nicotinic acid with a longer half-life, lower maximal concentration (C), better bioavailability and has a depot effect in the kidney and liver”.

What about the “IV pharmacokinetics profile (in words)” value ([2]; IV) of the same compound?
Its value is “biphasic rapid distribution followed by elimination”.

What about the “Purity % by UP LC” value ([3]; Day 0) of the same compound?
Its value is 98.92%.

And the “Purity % by UP LC” value ([3]; Day 93)?
The value was 99.62%.

And the “solid state stability (in words)” value ([3]; stored at −15° C. for up to three months)?
Its value is “stable”.

What about the “BUN compared to group 2 (cisplatin only)” value [4, 7] of the same compound?
The value was “significant reduction”.

What about the “serum creatinine compared to group 2 (cisplatin only)” value [4, 7] of the same compound?
Its value is “significant reduction”.

And the “nephroprotection (conclusion)” value ([4]; mice, all three oral doses)?
The value was “nephroprotection”.

Which fraction unbound at 5 h, 10 μM ([5]; % Bound in plasma) does the source give for `COC(=O)[C@@H](C)NP(=O)(OC[C@H]1OC(OC(=O)c2cccnc2)[C@H](O)[C@@H]1O)Oc1ccccc1` (stereo partly drawn) [Compound 101, (3R, 4S, 5R)-3,4-dihydroxy-5-(((((1-methoxy-1-oxopropan-2-yl)amino)(phenoxy)phosphoryl)oxy)methyl)tetrahydrofuran-2-yl nicotinate] here?
The fraction unbound at 5 h, 10 μM was 0.306.

What about the fraction unbound at 5 h, 10 μM ([5]; % Unbound in plasma) of the same compound?
Its fraction unbound at 5 h, 10 μM is 0.306.

What about the fraction unbound at 5 h, 10 μM ([5]; Fraction unbound) of the same compound?
The fraction unbound at 5 h, 10 μM was 0.31.

What about the “Remarks (clearance class)” value (human hepatocytes) of the same compound?
Its value is “high clearance and High”.
